Experimental data: US20140037721A1, “Pharmaceutical Composition” (Alpharma pharmaceuticals LLC, priority 2007, published 2014)
Counter-ions that a name gives are not always drawn.

Legend:
[1] = in comparison to a 15 mg dose of hydrocodone
[2] = test system: opioid receptors; conditions: cited from earlier work
[3] = cited from earlier work

Compound | Equianalgesic Calculated Dose [1] | other results
COc1ccc2c3c1O[C@H]1[C@@H](O)C=C[C@H]4[C@@H](C2)N(C)CC[C@@]341 [Codeine, codeine] | 90.0 mg | –
COc1ccc2c3c1OC1C(=O)CC[C@H]4[C@@H](C2)N(C)CC[C@]314 (stereo partly drawn) [Hydrocodone, 4,5-epoxy-3-methoxy-17-methylmorphinan-6-one] | 15.0 mg | –
O=C1CC[C@@]2(O)[C@H]3Cc4ccc(O)c5c4[C@@]2(CCN3CC2CC2)[C@H]1O5 [naltrexone] | – | blockade of morphine effects ([2]; normal volunteers, three 100-mg doses, MS Contin): blocked
CN1CC[C@]23CCCC[C@H]2[C@H]1Cc1ccc(O)cc13 [Levorphanol, levorphanol] | 1.8 mg | –
C[C@H]1[C@H]2Cc3ccc(O)cc3[C@]1(C)CCN2CC1CC1 [cyclazocine] | – | duration of action after oral administration ([2]; in vivo, po): ~24 h
CCC(=O)C(CC(C)N(C)C)(c1ccccc1)c1ccccc1 (stereo not drawn) [Methadone, methadone] | 9.0 mg | –
COc1ccc2c3c1OC1C(=O)CC[C@@]4(O)[C@@H](C2)N(C)CC[C@]314 (stereo partly drawn) [Oxycodone, 4,5-epoxy-14-hydroxy-3-methoxy-17-methylmorphinan-6-one] | 13.5 mg | –
O=C1CC[C@@]2(O)[C@H]3Cc4ccc(O)c5c4[C@@]2(CCN3CC2CC2)[C@H]1O5 [hydrochloride salt of naltrexone, naltrexone hydrochloride] | – | solubility in water [3]: about 100 mg/cc
meperidine | 135.0 mg | –
